Experimental data taken from patent publication US20100311749A1, “4-BENZOYL-1-SUBSTITUTED-PIPERAZIN-2-ONE DERIVATIVES AS P2X7 MODULATORS” (priority 2007, published 2010).

These compounds were tested against T1, human P2X7 receptor (Homo sapiens, UniProt Q99572) (assay: Ethidium Accumulation Assay). Conditions: HEK293 cells stably expressing human recombinant P2X7 receptors; 1 mM ATP; values given as 'about'; read-out: pIC50 for human P2X7 receptor antagonist activity (blocking ATP responses) in the Ethidium Accumulation Assay (converted).
T1 construct: expressed in transfected cells
T1 sequence (Q99572 1-595): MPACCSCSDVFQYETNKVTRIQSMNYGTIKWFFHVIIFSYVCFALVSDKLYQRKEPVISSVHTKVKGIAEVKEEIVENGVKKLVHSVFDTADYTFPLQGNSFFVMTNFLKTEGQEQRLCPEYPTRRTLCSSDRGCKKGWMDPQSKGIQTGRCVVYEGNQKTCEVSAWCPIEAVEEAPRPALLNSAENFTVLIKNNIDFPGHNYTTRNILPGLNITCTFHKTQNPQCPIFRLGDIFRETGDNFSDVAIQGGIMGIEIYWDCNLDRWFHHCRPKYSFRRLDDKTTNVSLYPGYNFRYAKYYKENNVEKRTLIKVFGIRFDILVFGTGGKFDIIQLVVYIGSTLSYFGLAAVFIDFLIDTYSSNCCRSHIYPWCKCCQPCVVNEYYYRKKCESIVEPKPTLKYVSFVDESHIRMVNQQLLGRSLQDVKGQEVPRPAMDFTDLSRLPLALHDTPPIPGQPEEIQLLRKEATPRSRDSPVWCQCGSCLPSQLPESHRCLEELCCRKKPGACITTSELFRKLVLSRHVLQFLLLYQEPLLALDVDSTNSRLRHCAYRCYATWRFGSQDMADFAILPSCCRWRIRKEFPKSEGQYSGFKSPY
Format: cell-based
Experimental: Studies were performed using NaCl assay buffer of the following composition: 140 mM NaCl, 10 mM HEPES [4-(2-hydroxyethyl)-1-piperazine-1-ethanesulfonic acid], 5 mM N-methyl-D-glucamine, 5.6 mM KCl, 10 mM D-glucose, 0.5 mM CaCl2 (pH 7.4).
Human Embryonic Kidney (HEK) 293 cells, stably expressing human recombinant P2X7 receptors, were grown in poly-D-lysine pre-treated 96 well plates for 18-24 hours. […] The cells were washed twice with 350 μl of the assay buffer, before addition of 50 μl of the assay buffer containing the putative P2X7 receptor antagonist compound. (A small amount of dimethyl sulfoxide, for initially dissolving the compound, is optionally used and present in this 50 μl test compound sample.) The cells were then incubated at room temperature (19-21° C.) for 30 min before addition of ATP and ethidium (100 μM final assay concentration). The ATP concentration was chosen to be close to the EC80 for the receptor type and was 1 mM for studies on the human P2X7 receptor. Incubations were continued for 8 or 16 min and were terminated by addition of 25 μl of 1.3M sucrose containing 4 mM of the P2X7 receptor antagonist Reactive Black 5 (Aldrich). […] Antagonist pIC50 values for blocking ATP responses were determined using iterative curve fitting techniques.

Row | IC50 [nM] | SMILES
1 | 2.51 to 100 | CC(C)c1ccccc1N1CCN(C(=O)c2cccc(Cl)c2Cl)CC1=O [Example 27, 4-[(2,3-dichlorophenyl)carbonyl]-1-[2-(1-methylethyl)phenyl]-2-piperazinone]
2 | 2.51 to 100 | O=C(c1ccc(F)c(F)c1Cl)N1CCN(c2ccc(F)cc2Cl)C(=O)C1 [Example 32, 4-[(2-chloro-3,4-difluorophenyl)carbonyl]-1-(2-chloro-4-fluorophenyl)-2-piperazinone]
3 | 5.01 to 200 | Cc1ccccc1N1CCN(C(=O)c2ccc(Cl)cc2Cl)CC1=O [Example 2, 4-[(2,4-Dichlorophenyl)carbonyl]-1-(2-methylphenyl)-2-piperazinone]
4 | 2.51 to 100 | O=C(c1cccc(C(F)(F)F)c1Cl)N1CCN(c2cc(N3CCOCC3)ccc2Cl)C(=O)C1 [Example 78, 1-[2-chloro-5-(4-morpholinyl)phenyl]-4-{[2-chloro-3-(trifluoromethyl)phenyl]-carbonyl}-2-piperazinone]
5 | 5.01 to 200 | O=C(c1cccc(Cl)c1Cl)N1CCN(c2cccc(Cl)c2)C(=O)C1 [Example 14, 1-(3-Chlorophenyl)-4-[(2,3-dichlorophenyl)carbonyl]-2-piperazinone]
6 | 2.51 to 100 | O=C(c1cccc(C(F)(F)F)c1F)N1CCN(c2ccc(F)cc2Cl)C(=O)C1 [Example 56, 1-(2-chloro-4-fluorophenyl)-4-{[2-fluoro-3-(trifluoromethyl)phenyl]carbonyl}-2-piperazinone]
7 | 5.01 to 200 | O=C(c1cccc(Cl)c1Cl)N1CCN(c2ccc(Cl)cc2)C(=O)C1 [Example 7, 1-(4-Chlorophenyl)-4-[(2,3-dichlorophenyl)carbonyl]-2-piperazinone]
8 | 5.01 to 200 | O=C(c1ccc(Cl)cc1Cl)N1CCN(c2ccccc2Cl)C(=O)C1 [Example 8, 1-(2-Chlorophenyl)-4-[(2,4-dichlorophenyl)carbonyl]-2-piperazinone]
9 | 2.51 to 100 | O=C(c1cccc(Cl)c1Cl)N1CCN(c2cc(N3CCOCC3)ccc2Cl)C(=O)C1 [Example 76, 1-[2-chloro-5-(4-morpholinyl)phenyl]-4-[(2,3-dichlorophenyl)carbonyl]-2-piperazinone]
10 | 2.51 to 100 | O=C(c1c(Cl)cccc1Cl)N1CCN(c2ccc(F)cc2Cl)C(=O)C1 [Example 31, 1-(2-chloro-4-fluorophenyl)-4-[(2,6-dichlorophenyl)carbonyl]-2-piperazinone]
11 | 5.01 to 200 | CCN1CCN(C(=O)c2cccc(Cl)c2Cl)CC1=O [Example 17, 4-[(2,3-Dichlorophenyl)carbonyl]-1-ethyl-2-piperazinone]
12 | 2.51 to 100 | Cc1c(N2CCOCC2)cccc1N1CCN(C(=O)c2cccc(Cl)c2Cl)CC1=O [Example 80, 4-[(2,3-dichlorophenyl)carbonyl]-1-[2-methyl-3-(4-morpholinyl)phenyl]-2-piperazinone]
13 | 2.51 to 100 | Cc1cc(F)c(Br)cc1N1CCN(C(=O)c2cccc(C(F)(F)F)c2Cl)CC1=O [Example 45, 1-(5-bromo-4-fluoro-2-methylphenyl)-4-{[2-chloro-3-(trifluoromethyl)phenyl]carbonyl}-2-piperazinone]
14 | 2.51 to 100 | Cc1ccc(Br)cc1N1CCN(C(=O)c2cccc(C(F)(F)F)c2Cl)CC1=O [Example 53, 1-(5-bromo-2-methylphenyl)-4-{[2-chloro-3-(trifluoromethyl)phenyl]carbonyl}-2-piperazinone]
15 | 2.51 to 100 | CN1CCN(C(=O)c2cccc(C(F)(F)F)c2Cl)CC1=O [Example 35, 4-{[2-chloro-3-(trifluoromethyl)phenyl]carbonyl}-1-methyl-2-piperazinon]
16 | 5.01 to 200 | O=C(c1cccc(C(F)(F)F)c1Cl)N1CCN(c2ccc(F)cc2)C(=O)C1 [Example 12, 4-{[2-Chloro-3-(trifluoromethyl)phenyl]carbonyl}-1-(4-fluorophenyl)-2-piperazinone]
17 | 5.01 to 200 | O=C(c1cccc(C(F)(F)F)c1Cl)N1CCN(c2ccccc2Cl)C(=O)C1 [Example 9, 1-(2-Chlorophenyl)-4-{[2-chloro-3-(trifluoromethyl)phenyl]carbonyl}-2-piperazinone]
